Data reported in publication PMC5074465, “Duloxetine Inhibits Microglial P2X4 Receptor Function and Alleviates Neuropathic Pain after Peripheral Nerve Injury” (PLoS ONE, 2016).

How the values were obtained:
rat P2X4R (rP2X4R) = molecular target: T1, rat P2X4R (rP2X4R) (Rattus norvegicus, UniProt P51577); experiment: Fura-2 Ca2+ assay (FDSS […]EX), inhibition of […] ATP response, […] duloxetine; type: cell-based
T1 construct: gene P2rx4; rP2X4R stably expressed in 1321N1 cells
T1 sequence (P51577 1-388): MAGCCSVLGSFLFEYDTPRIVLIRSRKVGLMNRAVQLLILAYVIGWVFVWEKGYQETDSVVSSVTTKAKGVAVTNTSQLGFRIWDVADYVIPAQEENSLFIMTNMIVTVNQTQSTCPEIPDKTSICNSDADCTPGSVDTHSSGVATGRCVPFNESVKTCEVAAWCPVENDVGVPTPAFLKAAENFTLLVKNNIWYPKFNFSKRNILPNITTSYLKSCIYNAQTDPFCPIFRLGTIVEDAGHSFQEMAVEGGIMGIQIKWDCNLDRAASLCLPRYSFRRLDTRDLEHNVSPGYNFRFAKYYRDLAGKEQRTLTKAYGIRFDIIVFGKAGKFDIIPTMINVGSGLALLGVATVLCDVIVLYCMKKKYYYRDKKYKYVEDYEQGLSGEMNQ

[1] = molecular target: T2, human P2X4R (P2X4 receptor) (Homo sapiens, UniProt Q99571); experiment: cell-based
T2 construct: gene P2RX4
T2 sequence (Q99571 1-388): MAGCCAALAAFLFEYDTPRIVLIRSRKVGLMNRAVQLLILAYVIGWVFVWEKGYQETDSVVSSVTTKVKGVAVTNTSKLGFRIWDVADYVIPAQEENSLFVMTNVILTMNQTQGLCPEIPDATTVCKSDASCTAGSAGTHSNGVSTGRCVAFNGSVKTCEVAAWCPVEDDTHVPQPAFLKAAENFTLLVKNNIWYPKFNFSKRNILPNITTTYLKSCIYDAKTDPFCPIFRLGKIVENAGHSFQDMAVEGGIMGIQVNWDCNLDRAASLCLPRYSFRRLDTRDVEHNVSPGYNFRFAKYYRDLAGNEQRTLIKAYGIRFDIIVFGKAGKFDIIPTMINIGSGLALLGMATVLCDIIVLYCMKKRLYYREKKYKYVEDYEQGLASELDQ

With CNCC[C@H](Oc1cccc2ccccc12)c1cccs1 [duloxetine] the “Fura-2 Ca2+ assay (FDSS 7000EX), inhibition of 10 μM ATP response, 3-30 μM dulox” value (rat P2X4R (rP2X4R)) was “The inhibitory effect of duloxetine was concentration dependent in rP2X4R-1321N1 cells (Fig 1A)” and the IC50 [1] was 1590 nM.
